Test results published in patent publication US20050238593A1, “Compositions containing dolichol for dermatological and cosmetic use” (priority 2002, published 2005).

Assays:
[1] = Study of anti UV-B activity: UV photo-irradiation of dolichol, absorbance change; type: physicochemical
Description: (§1) After irradiation, dolichol undergoes transformations in the most dangerous spectral region (UVB), depending on the dose of radiation applied; it absorbs UV radiation and, if irradiated with UVC rays, instantly acquires an absorption capacity in the UVB region. […] The phenomenon is very weak in the case of irradiation with monochromatic light at 310 nm, more intense with irradiation at 280 nm, and greatest with white light irradiation, namely with the entire emission spectrum of the xenon lamp. […] The photodecomposition products of dolichol have not yet been identified but, by analogy with the findings made with peroxidative degradation of dolichol in isolated hepatocytes treated with carbon tetrachloride, it can be concluded that in biological systems, the degradation cascade leads to the formation of thiobarbituric acid reactive substances (TBARS), which are readily metabolised and detoxified by the body in the event of resorption. […] As regards absorption, it should be borne in mind that dolichol is a normal constituent of all cell membranes, in which it is synthesised and remains until breakdown, without being resorbed into the bloodstream or being transferable to other tissues.

[2] = In vivo photoprotection tests using dolichol; conditions: dolichol approx. 1 mg/cm2, in vivo
[3] = tested on: isolated hepatocytes treated with carbon tetrachloride; assay: Peroxidative degradation of dolichol and TBARS formation in hepatocytes treated with CCl4; type: cell-based; conditions: Vitamin E administered
Description: as §1

increase in absorbance at 250 nm ([1]; irradiated with UVC rays)	increase in absorbance at 320 nm ([1]; irradiated with UVC rays, in one minute) [%]	increase in absorbance at 320 nm ([1]; irradiated with UVC rays, in two minutes) [%]	acquisition of UVB absorption (the phenomenon) ([1]; irradiation at 280 nm)	acquisition of UVB absorption (the phenomenon) ([1]; irradiation with monochromatic light at 310 nm)	acquisition of UVB absorption (the phenomenon) ([1]; white light irradiation, entire emission spectrum of the xenon lamp)	cell-damaging effects [2]	Substance	photostability under UV photo-irradiation ([1]; UV photo-irradiation in an oxygen atmosphere)	(photo)sensitising effects [2]	degradation of dolichol and formation of TBARS [3]
more modest increases	430	580	more intense	very weak	greatest	does not have cell-damaging effects	dolichol	apparent breakdown, accompanied by disappearance of UVC absorption capacity	does not have cell-damaging effects or (photo)sensitising effects	
							Vitamin E			prevented
